Assay [1] concerns the target T1, α5 subtype containing GABA-A receptors (Homo sapiens, UniProt P18507+P31644).
T1 construct: expressed in transfected cells; host or cells: Xenopus laevis oocytes, cRNA injected
In words: Two-electrode voltage clamp electrophysiology in Xenopus oocytes, potentiation of GABA EC20 response, α5. The format is cell-based. Conditions: 100 nM compound; for activation at 0.1 µM: read-out: Percentage of potentiation alpha5. On the procedure:
(§1) Electrophysiology protocol: Oocytes were prepared from adult female Xenopus laevis frogs. cRNA encoding human α1, α2, α3, α5, β3 and γ2L GABAA receptor subunits was injected into the cytoplasm of stage 5 or 6 oocytes using the Robocyte Robot (Multi Channel Systems, Reutlingen, Germany). Two-electrode voltage clamp recordings were made in 96-well plates using the Robocyte Robot. Oocytes were impaled using recording heads with two glass electrodes containing 1.5 M potassium acetate and 0.5 M KCl and held at a membrane potential of −80 mV. Oocytes were continually perfused with a ND96 solution (96 mM NaCl, 2 mM KCl, 0.1 mM CaCl2, and 5 mM HEPES, pH 7.5) using a Gilson 222 XL Liquid Handler and Gilson Minipuls 3 Peristaltic Pump (Gilson Medical Electronics, Middleton, Wis., USA). The protocol consisted of three 20-s applications of GABA that gave a 20% of the maximum response (EC20: 60 μM) to allow for headroom to determine a baseline GABA response. To assess the potentiation, oocytes were first exposed to a single 1 μM chlordiazepoxide (CDP) as a potentiation standard. Oocytes with insufficient expression levels (currents below threshold) or insufficient γ2L subunit incorporation (judged by rapid desensitization upon GABA application, or by insufficient potentiation by CDP) were not included in analysis. Following this control application, a given oocyte was exposed to test compounds at 100 nM concentrations. Only one concentration of one compound was tested per oocyte. […] One skilled in the art will recognize that subtypes contribute to the effects of GABA-A modulators. Such that compounds favoring different subtypes can have different therapeutic effects. The magnitude of modulation, for example, partial modulators can influence the effects in vivo. “++” indicates a greater modulation that “+” so that at any given subtype “++” inducates a greater amount of modulation for that subtype. In some embodiments, modulation favoring alpha 1 relative to alpha2 and/or alpha 3 can have sedative hypnotic effects. In other embodiments, compounds with reduced selectivity of alpha 1 can express anxiolytic effects with less sedation. Compounds with selectivity for alpha 5 can have memory/cognition enhancing effects.
For orientation: Two-electrode voltage clamp holds a large cell at a set potential and records current.

Assay [2] relates to central benzodiazepine receptors. In words: Central benzodiazepine receptor binding (test of Speth et al.). The settings on record: 1000 nM of the compound. In short, it runs like this:
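Values are percent inhibition of central benzodiazepine receptor binding at 1000 nM compound (initial single-point screen at 1.0E-09, 1.0E-07 and 1.0E-05 M). Speth et al. binding test; nonspecific binding defined with excess unlabelled ligand and subtracted from total.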

In assay [3] the target is T2, α2 subtype containing GABA-A receptors (Homo sapiens, UniProt P18507+P47869).
T2 construct: expressed in transfected cells; host or cells: Xenopus laevis oocytes, cRNA injected
T2 sequence (P47869 29-451): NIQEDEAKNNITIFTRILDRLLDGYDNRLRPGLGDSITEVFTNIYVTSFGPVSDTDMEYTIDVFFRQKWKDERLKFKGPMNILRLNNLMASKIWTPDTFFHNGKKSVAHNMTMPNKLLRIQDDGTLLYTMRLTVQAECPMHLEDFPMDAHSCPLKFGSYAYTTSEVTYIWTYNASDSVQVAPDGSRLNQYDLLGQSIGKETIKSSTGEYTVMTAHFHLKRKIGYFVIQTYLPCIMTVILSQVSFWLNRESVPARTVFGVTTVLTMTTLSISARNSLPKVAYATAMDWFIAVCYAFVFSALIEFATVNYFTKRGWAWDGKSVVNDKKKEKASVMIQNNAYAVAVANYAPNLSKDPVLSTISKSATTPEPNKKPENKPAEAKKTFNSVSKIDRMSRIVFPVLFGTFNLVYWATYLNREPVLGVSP
T2 sequence (P28472 26-473 partner): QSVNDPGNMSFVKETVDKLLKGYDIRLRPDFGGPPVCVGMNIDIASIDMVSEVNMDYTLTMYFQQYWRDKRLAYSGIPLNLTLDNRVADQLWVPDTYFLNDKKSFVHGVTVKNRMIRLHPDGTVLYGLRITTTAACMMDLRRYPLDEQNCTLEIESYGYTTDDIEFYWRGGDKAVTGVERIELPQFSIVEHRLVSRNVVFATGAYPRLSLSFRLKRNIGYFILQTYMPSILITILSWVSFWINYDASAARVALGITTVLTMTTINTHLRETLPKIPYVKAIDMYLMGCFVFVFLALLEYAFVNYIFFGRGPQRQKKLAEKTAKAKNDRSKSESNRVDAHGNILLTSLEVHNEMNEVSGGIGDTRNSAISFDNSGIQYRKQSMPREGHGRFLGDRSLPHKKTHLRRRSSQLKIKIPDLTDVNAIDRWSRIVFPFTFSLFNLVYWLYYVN
T2 sequence (P18507 40-475): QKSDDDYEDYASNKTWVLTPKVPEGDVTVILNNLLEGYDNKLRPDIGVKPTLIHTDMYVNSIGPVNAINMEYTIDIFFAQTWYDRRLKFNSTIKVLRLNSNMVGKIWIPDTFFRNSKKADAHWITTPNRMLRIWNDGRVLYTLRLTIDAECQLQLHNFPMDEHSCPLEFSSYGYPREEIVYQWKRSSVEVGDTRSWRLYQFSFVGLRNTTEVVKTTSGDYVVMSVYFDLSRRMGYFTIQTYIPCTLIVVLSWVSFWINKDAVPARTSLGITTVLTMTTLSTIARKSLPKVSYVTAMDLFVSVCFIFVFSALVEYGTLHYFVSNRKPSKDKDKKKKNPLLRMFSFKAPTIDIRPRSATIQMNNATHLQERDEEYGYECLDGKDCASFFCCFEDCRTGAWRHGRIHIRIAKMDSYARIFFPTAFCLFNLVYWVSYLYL
In words: Two-electrode voltage clamp electrophysiology in Xenopus oocytes, potentiation of GABA EC20 response, α2. The format is cell-based. Conditions: 100 nM compound; for activation at 0.1 µM: read-out: Percentage of potentiation alpha2. In short, it runs like this: (§2)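 Stage 5–6 Xenopus oocytes were injected with cRNA for human α subunit plus β3 and γ2L, then voltage-clamped at −80 mV under ND96 perfusion. Each received 60 μM GABA (EC20), a 1 μM chlordiazepoxide control, and then a single 100 nM compound application.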

Assay [4] addresses T3, α3 subtype containing GABA-A receptors (Homo sapiens, UniProt P18507+P34903).
T3 construct: expressed in transfected cells; host or cells: Xenopus laevis oocytes, cRNA injected
In words: Two-electrode voltage clamp electrophysiology in Xenopus oocytes, potentiation of GABA EC20 response, α3. The format is cell-based. The settings on record: 100 nM compound; for activation at 0.1 µM: read-out: Percentage of potentiation alpha3. On the procedure: as §1

In assay [5] the target is T4, α1 subtype containing GABA-A receptors (Homo sapiens, UniProt P14867+P18507).
T4 construct: expressed in transfected cells; host or cells: Xenopus laevis oocytes, cRNA injected
T4 sequence (P14867 28-456): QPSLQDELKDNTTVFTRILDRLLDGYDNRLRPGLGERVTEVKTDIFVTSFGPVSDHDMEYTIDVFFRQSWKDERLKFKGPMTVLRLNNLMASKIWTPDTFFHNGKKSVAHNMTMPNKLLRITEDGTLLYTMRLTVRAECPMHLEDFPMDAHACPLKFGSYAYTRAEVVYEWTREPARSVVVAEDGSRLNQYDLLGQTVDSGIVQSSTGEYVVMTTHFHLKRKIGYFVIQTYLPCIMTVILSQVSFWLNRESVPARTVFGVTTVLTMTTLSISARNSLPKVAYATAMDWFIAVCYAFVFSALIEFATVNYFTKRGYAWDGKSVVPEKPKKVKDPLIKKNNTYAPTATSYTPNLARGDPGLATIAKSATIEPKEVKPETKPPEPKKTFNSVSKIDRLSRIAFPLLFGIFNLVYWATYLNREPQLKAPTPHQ
T4 sequence (P28472 26-473 partner): as the sequence (P28472 26-473 partner) above
T4 sequence (P18507 40-475): as the sequence (P18507 40-475) above
The experiment in a line: Two-electrode voltage clamp electrophysiology in Xenopus oocytes, potentiation of GABA EC20 response, α1. Conditions: 100 nM compound; for activation at 0.1 µM: read-out: Percentage of potentiation alpha1. The assay is classed as cell-based. The gist of the method: as §2

This note sets out measurements from patent publication US8497278B2, “Imidazo[1,2-a]pyridine compounds” (priority 2008, dated 2013).

T3 sequence (P34903 29-492): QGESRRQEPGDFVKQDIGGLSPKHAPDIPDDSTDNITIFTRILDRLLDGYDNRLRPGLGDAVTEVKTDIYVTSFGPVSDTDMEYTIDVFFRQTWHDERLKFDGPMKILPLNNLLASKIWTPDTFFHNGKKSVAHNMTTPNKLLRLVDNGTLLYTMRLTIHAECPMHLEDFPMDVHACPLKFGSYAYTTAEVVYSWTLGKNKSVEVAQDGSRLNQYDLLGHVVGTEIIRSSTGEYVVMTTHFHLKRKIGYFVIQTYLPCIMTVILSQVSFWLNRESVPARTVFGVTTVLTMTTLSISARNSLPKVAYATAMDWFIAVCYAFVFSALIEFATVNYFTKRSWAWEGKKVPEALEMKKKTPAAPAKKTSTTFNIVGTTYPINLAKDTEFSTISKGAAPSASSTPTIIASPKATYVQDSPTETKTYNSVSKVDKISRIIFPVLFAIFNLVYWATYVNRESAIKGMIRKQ
T3 sequence (P28472 26-473 partner): as the sequence (P28472 26-473 partner) above
T3 sequence (P18507 40-475): as the sequence (P18507 40-475) above
T1 sequence (P31644 32-462): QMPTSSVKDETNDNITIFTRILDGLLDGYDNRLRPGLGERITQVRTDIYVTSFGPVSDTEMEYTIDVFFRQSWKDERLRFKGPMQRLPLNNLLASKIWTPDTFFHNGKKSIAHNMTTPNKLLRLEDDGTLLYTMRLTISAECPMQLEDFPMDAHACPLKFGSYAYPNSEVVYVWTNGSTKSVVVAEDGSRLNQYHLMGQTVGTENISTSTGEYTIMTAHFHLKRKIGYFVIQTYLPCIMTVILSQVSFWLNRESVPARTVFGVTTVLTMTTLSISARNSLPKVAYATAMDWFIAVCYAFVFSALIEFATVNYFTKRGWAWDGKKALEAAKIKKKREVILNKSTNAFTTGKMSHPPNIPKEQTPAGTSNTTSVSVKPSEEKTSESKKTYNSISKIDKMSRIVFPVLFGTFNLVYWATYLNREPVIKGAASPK
T1 sequence (P28472 26-473 partner): as the sequence (P28472 26-473 partner) above
T1 sequence (P18507 40-475): as the sequence (P18507 40-475) above

In the case of `Fc1ccc2nc(-c3ccc(Cl)cc3)c(Cn3nnc4ccccc43)n2c1` [Compound 58, 1-((2-(4-chlorophenyl)-6-fluoroH-imidazo[1,2-a]pyridin-3-yl)methyl)-1H-benzo[d][1,2,3]triazole], the “Percentage of potentiation alpha5” value in assay [1] is given as 0 (percentage of potentiation is between about 10% to about −10%). Moreover, the “% Inhibition at 1000 nM for CBZD” value in assay [2] is recorded as “++ (percentage of inhibition of central BZD site binding is greater than 80% in the presence of 1000 nM of the compound)”. For the same compound, the “Percentage of potentiation alpha2” value in assay [3] was “+ (percentage of potentiation is greater than or equal to 10% but less than 50% in the presence of 100 nM of the compound)”. Moreover, the “Percentage of potentiation alpha3” value in assay [4] is 0 (percentage of potentiation is between about 10% to about −10%). In addition, the “Percentage of potentiation alpha1” value in assay [5] is given as “+ (percentage of potentiation is greater than or equal to 10% but less than 50% in the presence of 100 nM of the compound)”.

Take `O=C1C=C(N2CCC(O)C2)CN1Cc1c(-c2ccc(Cl)cc2)nc2ccccn12` (stereo not shown) [Compound 240, 1-((2-(4-chlorophenyl)imidazo[1,2-a]pyridin-3-yl)methyl)-4-(3-hydroxypyrrolidin-1-yl)-1H-pyrrol-2(5H)-one]: the activation at 0.1 µM in assay [1] is -10 to 10%; in assay [3], 10 to 50%; in assay [4], -10 to 10%; in assay [5], at least 50%. In addition, in assay [2], the “% Inhibition at 1000 nM for CBZD” value is on record as “++ (percentage of inhibition of central BZD site binding is greater than 80% in the presence of 1000 nM of the compound)”.

Take `Cc1ccnc(NCc2c(-c3ccccc3)nc3ccc(Cl)cn23)n1` [Compound 158, (6-Chloro-2-phenyl-imidazo[1,2-a]pyridin-3-ylmethyl)-(4-methyl-pyrimidin-2-yl)-amine]: the activation at 0.1 µM in assay [1] is -10 to 10%; in assay [3], 10 to 50%; in assay [4], 10 to 50%; in assay [5], -10 to 10%. In addition, the “% Inhibition at 1000 nM for CBZD” value in assay [2] is “++ (percentage of inhibition of central BZD site binding is greater than 80% in the presence of 1000 nM of the compound)”.

For `COC(=O)c1ncnn1Cc1c(-c2ccc(Cl)cc2)nc2ccc(Cl)cn12` [Compound 21, Methyl 2-((6-chloro-2-(4-chlorophenyl)H-imidazo[1,2-a]pyridin-3-yl)methyl)-2H-1,2,4-triazole-3-carboxylate], the “Percentage of potentiation alpha5” value in assay [1] is 0 (percentage of potentiation is between about 10% to about −10%). For the same compound, in assay [2], the “% Inhibition at 1000 nM for CBZD” value is given as “++ (percentage of inhibition of central BZD site binding is greater than 80% in the presence of 1000 nM of the compound)”. Besides, the “Percentage of potentiation alpha2” value in assay [3] is on record as “+ (percentage of potentiation is greater than or equal to 10% but less than 50% in the presence of 100 nM of the compound)”. In assay [4], the “Percentage of potentiation alpha3” value was “+ (percentage of potentiation is greater than or equal to 10% but less than 50% in the presence of 100 nM of the compound)”. In addition, in assay [5], the “Percentage of potentiation alpha1” value was “+ (percentage of potentiation is greater than or equal to 10% but less than 50% in the presence of 100 nM of the compound)”.

Turning to `Cc1ccc(-c2nc3ccc(C)cn3c2Cn2cnc3ncccc32)cc1` [Compound 15, 1-((6-Methyl-2-p-tolylH-imidazo[1,2-a]pyridin-3-yl)methyl)-1H-imidazo[4,5-b]pyridine], the “Percentage of potentiation alpha5” value in assay [1] was 0 (percentage of potentiation is between about 10% to about −10%). Besides, the “% Inhibition at 1000 nM for CBZD” value in assay [2] was “++ (percentage of inhibition of central BZD site binding is greater than 80% in the presence of 1000 nM of the compound)”. For the same compound, in assay [3], the “Percentage of potentiation alpha2” value is on record as “+ (percentage of potentiation is greater than or equal to 10% but less than 50% in the presence of 100 nM of the compound)”. The “Percentage of potentiation alpha3” value in assay [4] was “+ (percentage of potentiation is greater than or equal to 10% but less than 50% in the presence of 100 nM of the compound)”. In addition, the “Percentage of potentiation alpha1” value in assay [5] is “+ (percentage of potentiation is greater than or equal to 10% but less than 50% in the presence of 100 nM of the compound)”.
